Laboratory results taken from the supplement of paper PMC8882468.

Experiments:
Assay in all cases: CTG-3D luminescence at 96 h relative to day-0 seeding control (ratio to day 0); higher = more growth / less cytotoxicity; PDxO 3D drug screen, 96 h, CTG-3D normalised to day-0 seeding control.
HCI-016 = tested on: HCI-016 (organoid from a triple-negative breast cancer xenograft)
HCI-019 = tested on: HCI-019 (organoid from a triple-negative breast cancer xenograft)
HCI-008 = tested on: HCI-008 (organoid from a HER2-enriched breast cancer xenograft)
HCI-010 = tested on: HCI-010 (organoid from a breast cancer xenograft)
HCI-025 = tested on: HCI-025 (organoid from a breast cancer xenograft)
HCI-027 = tested on: HCI-027 (organoid from a triple-negative breast cancer xenograft)

NC(=O)Nc1cc(-c2cccc(F)c2)sc1C(=O)N[C@H]1CCCNC1 [AZD7762]
CTG-3D luminescence at 96 h
Settings	12.5 pM	0.00025 µM	0.005 µM	0.1 µM	1 µM	10 µM	100 µM	625 fM
HCI-008, days in culture: 228	1.63	1.9	1.65	1.14	0.449	0.196	-0.128	1.86
HCI-008, days in culture: 244	1.39	1.87	2.45	1.66	0.881	0.413	0.00425	2.38
HCI-010, days in culture: 52	2.15	2.42	2.03	0.844	0.355	0.327	-0.0157	2.28
HCI-010, days in culture: 65	1.69	1.62	1.42	0.742	0.378	0.219	0.00203	1.65
HCI-010, days in culture: 103	3.16	3.35	3.16	1.23	0.651	0.537	0.0021	3.22
HCI-016, days in culture: 153	3.14	1.64	2.54	0.266	0.0727	0.081	0.000259	2.62
HCI-016, days in culture: 172	2.35	1.91	1.78	0.194	0.0623	0.0531	-3.08e-05	1.66
HCI-016, days in culture: 190	1.53	1.19	1.71	0.131	0.0574	0.0481	0.00171	1.32
HCI-016, days in culture: 199	1.5	1.46	1.56	0.129	0.0407	0.0245	-0.00099	1.57
HCI-019, days in culture: 110	2.48	1.62	1.33	1.06	0.333	0.13	-0.000246	2.15
HCI-019, days in culture: 131	2.56	4.24	2.81	2.99	0.541	0.193	0.00562	4.04
HCI-019, days in culture: 152	1.82	2.74	2.11	1.11	0.437	0.149	0.00479	3.06
HCI-025, days in culture: 172	3.17	1.83	2.73	0.677	0.305	0.0747	-0.00404	2.61
HCI-025, days in culture: 209	1.54	2.2	1.92	0.713	0.29	0.0922	-0.00311	1.39
HCI-025, days in culture: 218	1.78	1.97	2.04	1.33	0.198	0.105	-0.00375	1.77
HCI-027, days in culture: 176	1.95	1.34	2.55	0.208	0.0981	0.0356	-0.00164	2.05
HCI-027, days in culture: 194	1.41	1.22	1.34	0.159	0.0911	0.0685	-0.00154	1.61
HCI-027, days in culture: 201	1.43	2.16	2.35	0.166	0.0767	0.078	-1.51e-05	1.6

C=CC(=O)N1CCC[C@@H](n2nc(-c3ccc(Oc4ccccc4)cc3)c3c(N)ncnc32)C1 [ibrutinib]
CTG-3D luminescence at 96 h
Settings	12.5 pM	0.00025 µM	0.005 µM	0.1 µM	1 µM	10 µM	100 µM	625 fM
HCI-008, days in culture: 228	1.59	1.84	1.21	1.18	1.26	1	-0.0059	1.66
HCI-008, days in culture: 244	1.25	1.71	1.76	1.65	1.52	1.3	-0.0038	1.98
HCI-010, days in culture: 52	2.16	2.15	2.34	2.35	2.08	1.47	-0.00732	2.5
HCI-010, days in culture: 65	1.67	1.66	1.79	1.73	1.79	0.888	-0.00863	1.69
HCI-010, days in culture: 103	3.5	3.57	3.54	3.41	3.26	1.51	-0.0156	3.23
HCI-016, days in culture: 153	3.08	1.69	2.64	2.11	2.69	1.59	-0.00474	2.85
HCI-016, days in culture: 172	1.97	1.45	2	1.61	1.46	1.04	-0.00481	1.49
HCI-016, days in culture: 190	1.59	1.26	1.45	1.11	0.915	0.881	-0.00814	1.37
HCI-016, days in culture: 199	1.58	1.62	1.43	1.26	1.35	1.21	-0.00558	1.72
HCI-019, days in culture: 110	1.83	0.982	1.32	2.18	1.21	1.26	-0.00836	2.04
HCI-019, days in culture: 131	2.58	3.79	2.31	2.19	1.24	2.27	-0.0163	2.86
HCI-019, days in culture: 152	3.76	3.16	2.83	2.13	1.54	1.75	-0.00421	2.48
HCI-025, days in culture: 172	2.25	1.2	2.79	1.4	1.8	0.991	-0.0111	2.37
HCI-025, days in culture: 209	2.38	2.13	2.26	2.09	1.86	1.41	-0.0107	1.71
HCI-025, days in culture: 218	1.78	2.33	1.93	1.68	1.57	1.75	-0.00991	1.84
HCI-027, days in culture: 176	1.63	1.35	2.52	1.59	1.09	0.54	0.00595	1.73
HCI-027, days in culture: 194	1.68	1.52	1.52	1.6	1.98	1.69	0.00765	1.76
HCI-027, days in culture: 201	2.12	1.48	1.94	1.93	1.49	1.41	0.00768	2.11
